According to PubChem BioAssay AID2060325 (Molecular Pharmacology Branch, DTP, NCI, 2025):

Tested on: SK-OV-3 multi-cell spheroids, viability
Assay: Anticancer human tumor SK-OV-3 cell line growth inhibition [IpAb];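 on viability, T/C: viability read after seven days of drug exposure; percent of DMSO vehicle control luminescence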
Details: for IC50: curve of first compound; for viability, T/C: stronger effect = lower value
Source text: Combinatorial screen of targeted agents with ipatasertib and abemaciclib in multi-cell type tumor spheroids
A high-throughput screen of multi-cell type tumor spheroids was designed to identify active combinations of targeted small molecules and ipatasertib or abemaciclib. Complex spheroids include a stromal component modeled by human endothelial cells (HUVEC) and fibroblasts modeled by human mesenchymal stem cells (MSCs). The concentration ranges selected for each drug and investigational agent were based upon clinically achievable concentrations if the clinical Cmax of the agent was known.
Compounds. The drugs and investigational agents: ipatasertib (NSC767898), abemaciclib(NSC768073), selumetinib (NSC741078), trametinib (758246), adavosertib (NSC754352), everolimus (NSC733504), sapanisertib (NSC764658), vemurafenib (NSC761431), venetoclax (NSC766270), copanlisib (NSC809693), apelisib (NSC765974), palbociblib (NSC758247), vemurafenib (NSC761431), dabrafenib (NSC764134), ravoxertinib (NSC781343), BMS-387032 (NSC767048), sotorasib (NSC818433), talazoparib (NSC767125) and afursertib (NSC778305), were obtained from the National Cancer Institute (NCI) Developmental Therapeutics Program Chemical Repository. The FDA-approved anticancer drug set is available from the NCI Developmental Therapeutics Program. […] The stock solutions were prepared in dimethyl sulfoxide (DMSO, Sigma-Aldrich, St. Louis, MO, cat. D2650) at 800-fold the tested concentration and stored at -70 degrees C prior to their use. All drugs and investigational agents were tested over a range starting from a high concentration at or near the clinical Cmax and decreasing in half-log increments. If the clinical Cmax for an agent had not been determined, the highest concentration tested was 10 microM.
NCI60 Cell Culture. NCI60 cell lines were obtained from the NCI Developmental Therapeutics Program Tumor Repository. For each lot of cells, the Repository performed Applied Biosystems AmpFLSTR Identifiler testing with PCR amplification to confirm consistency with the published Identifier STR profile for each cell line. Cells were kept in continuous culture for no more than 20 passages. The optimal seeding densities for each of the cell lines at each time point assessed were determined prior to performing the concentration response studies. Briefly, the NCI60 human tumor lines were grown as monolayers in RPMI 1640 medium supplemented with 10% FBS and 2 mmol/L L-glutamine.
An additional 9 lines were from the NCI60 cell line panel including MDA-MB-231 breast carcinoma, MDA-MB-468 breast carcinoma, MCF7 breast carcinoma, Hs578T breast carcinoma, MALME-3M melanoma, SK-MEL-2 melanoma, SK-OV-3 ovarian carcinoma, DU-145 prostate carcinoma, PC-3 prostate carcinoma, all cell lines along with major genetic alterations are listed on Table 2. Pooled donor human umbilical vein endothelial cells (HUVEC, Lonza, cat. CC-2519) and human mesenchymal stem cells (hMSC, Lonza, cat. PT-2501) were purchased from Lonza (Walkersville, MD).
PDMR cell lines were grown in complete medium (DC medium): Dulbecco's modified Eagle's medium (DMEM)/F12 supplemented with 5% fetal bovine serum (FBS), 2 mM L-glutamine, 100 U/mL penicillin and 100 µg/ml streptomycin, 0.4 µg/ml hydrocortisone, 10 ng/ml epidermal growth factor (EGF) recombinant human protein, 24 µg/mL adenine, and 0.1 mg/mL primocin. During culture from frozen stock vials, PDMR cells were cultured in the same medium containing 10 µM Y-27632 (see Table 3). The PDCs were cultured in complete DMEM/F12 media without 10 microM Y-27632 dihydrochloride for at least two passages prior to the screen. The pooled donor HUVEC and hMSC were cultured in endothelial cell growth medium 2 (PromoCell, Heidelberg, Germany, cat. C-22011) and mesenchymal stem cell growth medium 2 (PromoCell, cat. C-28009), respectively. For all experiments, HUVEC and hMSC were used at passages </=5.
[…]

[1] = second compound 0.1 µM, first compound 0.0316 µM
[2] = second compound 0.1 µM, first compound 0.1 µM
[3] = second compound 0.1 µM, first compound 0.316 µM
[4] = second compound 0.1 µM, first compound 1 µM
[5] = second compound 0.1 µM, first compound 3.16 µM
[6] = second compound 0.1 µM, first compound 10 µM
[7] = second compound 0.316 µM, first compound 0.0316 µM
[8] = second compound 0.316 µM, first compound 0.1 µM
[9] = second compound 0.316 µM, first compound 0.316 µM
[10] = second compound 0.316 µM, first compound 1 µM
[11] = second compound 0.316 µM, first compound 3.16 µM
[12] = second compound 0.316 µM, first compound 10 µM
[13] = second compound 1 µM, first compound 0.0316 µM
[14] = second compound 1 µM, first compound 0.1 µM
[15] = second compound 1 µM, first compound 0.316 µM
[16] = second compound 1 µM, first compound 1 µM
[17] = second compound 1 µM, first compound 3.16 µM
[18] = second compound 1 µM, first compound 10 µM
[19] = second compound 3.16 µM, first compound 0.0316 µM
[20] = second compound 3.16 µM, first compound 0.1 µM
[21] = second compound 3.16 µM, first compound 0.316 µM
[22] = second compound 3.16 µM, first compound 1 µM
[23] = second compound 3.16 µM, first compound 3.16 µM
[24] = second compound 3.16 µM, first compound 10 µM
[25] = second compound 10 µM, first compound 0.0316 µM
[26] = second compound 10 µM, first compound 0.1 µM
[27] = second compound 10 µM, first compound 0.316 µM
[28] = second compound 10 µM, first compound 1 µM
[29] = second compound 10 µM, first compound 3.16 µM
[30] = second compound 10 µM, first compound 10 µM

## C=CCn1c(=O)c2cnc(Nc3ccc(N4CCN(C)CC4)cc3)nc2n1-c1cccc(C(C)(C)O)n1 + CC(C)NCC(C(=O)N1CCN(c2ncnc3c2C(C)CC3O)CC1)c1ccc(Cl)cc1
Second compound 0.1 µM
  IC50: 59.1 nM
Second compound 0.316 µM
  IC50: < 31.6 nM
Second compound 1 µM
  IC50: < 31.6 nM
Second compound 3.16 µM
  IC50: < 31.6 nM
Second compound 10 µM
  IC50: < 31.6 nM
[1]
  viability, T/C: 66.1%
[2]
  viability, T/C: 36.5%
[3]
  viability, T/C: 10%
[4]
  viability, T/C: 7.27%
[5]
  viability, T/C: 4.83%
[6]
  viability, T/C: 6.07%
[7]
  viability, T/C: 37.5%
[8]
  viability, T/C: 24.6%
[9]
  viability, T/C: 6.94%
[10]
  viability, T/C: 7.44%
[11]
  viability, T/C: 6.92%
[12]
  viability, T/C: 6.99%
[13]
  viability, T/C: 19.2%
[14]
  viability, T/C: 13.9%
[15]
  viability, T/C: 4.18%
[16]
  viability, T/C: 6.74%
[17]
  viability, T/C: 7.21%
[18]
  viability, T/C: 6.84%
[19]
  viability, T/C: 13.8%
[20]
  viability, T/C: 8.92%
[21]
  viability, T/C: 2.61%
[22]
  viability, T/C: 3.21%
[23]
  viability, T/C: 8.27%
[24]
  viability, T/C: 5.57%
[25]
  viability, T/C: 8.99%
[26]
  viability, T/C: 4.85%
[27]
  viability, T/C: 1.17%
[28]
  viability, T/C: 2.53%
[29]
  viability, T/C: 4.96%
[30]
  viability, T/C: 3.52%

## CC(C)n1nc(-c2ccc3oc(N)nc3c2)c2c(N)ncnc21 + CC(C)NCC(C(=O)N1CCN(c2ncnc3c2C(C)CC3O)CC1)c1ccc(Cl)cc1
Second compound 0.1 µM
  IC50: 0.623 nM
Second compound 0.316 µM
  IC50: < 0.316 nM
Second compound 1 µM
  IC50: < 0.316 nM
Second compound 3.16 µM
  IC50: < 0.316 nM
Second compound 10 µM
  IC50: < 0.316 nM
Second compound 0.1 µM, first compound 0.000316 µM
  viability, T/C: 59.2%
Second compound 0.1 µM, first compound 0.001 µM
  viability, T/C: 43.4%
Second compound 0.1 µM, first compound 0.00316 µM
  viability, T/C: 26.4%
Second compound 0.1 µM, first compound 0.01 µM
  viability, T/C: 13.7%
[1]
  viability, T/C: 8.65%
[2]
  viability, T/C: 6.5%
Second compound 0.316 µM, first compound 0.000316 µM
  viability, T/C: 32%
Second compound 0.316 µM, first compound 0.001 µM
  viability, T/C: 24.6%
Second compound 0.316 µM, first compound 0.00316 µM
  viability, T/C: 19.7%
Second compound 0.316 µM, first compound 0.01 µM
  viability, T/C: 9.18%
[7]
  viability, T/C: 5.66%
[8]
  viability, T/C: 4.86%
Second compound 1 µM, first compound 0.000316 µM
  viability, T/C: 18.7%
Second compound 1 µM, first compound 0.001 µM
  viability, T/C: 14.1%
Second compound 1 µM, first compound 0.00316 µM
  viability, T/C: 12%
Second compound 1 µM, first compound 0.01 µM
  viability, T/C: 7.26%
[13]
  viability, T/C: 4.57%
[14]
  viability, T/C: 4.78%
Second compound 3.16 µM, first compound 0.000316 µM
  viability, T/C: 14.5%
Second compound 3.16 µM, first compound 0.001 µM
  viability, T/C: 12.7%
Second compound 3.16 µM, first compound 0.00316 µM
  viability, T/C: 9.97%
Second compound 3.16 µM, first compound 0.01 µM
  viability, T/C: 5.51%
[19]
  viability, T/C: 3.82%
[20]
  viability, T/C: 3.94%
Second compound 10 µM, first compound 0.000316 µM
  viability, T/C: 8.69%
Second compound 10 µM, first compound 0.001 µM
  viability, T/C: 9.03%
Second compound 10 µM, first compound 0.00316 µM
  viability, T/C: 6.95%
Second compound 10 µM, first compound 0.01 µM
  viability, T/C: 3.56%
[25]
  viability, T/C: 2.31%
[26]
  viability, T/C: 3.23%

## CC1(C)CCC(CN2CCN(c3ccc(C(=O)NS(=O)(=O)c4ccc(NCC5CCOCC5)c([N+](=O)[O-])c4)c(Oc4cnc5[nH]ccc5c4)c3)CC2)=C(c2ccc(Cl)cc2)C1 + CC(C)NCC(C(=O)N1CCN(c2ncnc3c2C(C)CC3O)CC1)c1ccc(Cl)cc1
Second compound 0.1 µM
  IC50: 3200 nM
Second compound 0.316 µM
  IC50: < 31.6 nM
Second compound 1 µM
  IC50: < 31.6 nM
Second compound 3.16 µM
  IC50: < 31.6 nM
Second compound 10 µM
  IC50: < 31.6 nM
[1]
  viability, T/C: 64.3%
[2]
  viability, T/C: 70.6%
[3]
  viability, T/C: 68%
[4]
  viability, T/C: 58.6%
[5]
  viability, T/C: 51.2%
[6]
  viability, T/C: 26.1%
[7]
  viability, T/C: 33.6%
[8]
  viability, T/C: 38.2%
[9]
  viability, T/C: 31.7%
[10]
  viability, T/C: 31.6%
[11]
  viability, T/C: 28%
[12]
  viability, T/C: 18.6%
[13]
  viability, T/C: 21.1%
[14]
  viability, T/C: 27.3%
[15]
  viability, T/C: 21.6%
[16]
  viability, T/C: 18.9%
[17]
  viability, T/C: 17%
[18]
  viability, T/C: 13.7%
[19]
  viability, T/C: 15.5%
[20]
  viability, T/C: 15.3%
[21]
  viability, T/C: 14.2%
[22]
  viability, T/C: 13.9%
[23]
  viability, T/C: 11.1%
[24]
  viability, T/C: 7.06%
[25]
  viability, T/C: 7.25%
[26]
  viability, T/C: 9.06%
[27]
  viability, T/C: 8.25%
[28]
  viability, T/C: 6.89%
[29]
  viability, T/C: 5.18%
[30]
  viability, T/C: 4.58%

## CCCS(=O)(=O)Nc1ccc(F)c(C(=O)c2c[nH]c3ncc(-c4ccc(Cl)cc4)cc23)c1F + CC(C)NCC(C(=O)N1CCN(c2ncnc3c2C(C)CC3O)CC1)c1ccc(Cl)cc1
Second compound 0.1 µM
  IC50: 4770 nM
Second compound 0.316 µM
  IC50: < 31.6 nM
Second compound 1 µM
  IC50: < 31.6 nM
Second compound 3.16 µM
  IC50: < 31.6 nM
Second compound 10 µM
  IC50: < 31.6 nM
[1]
  viability, T/C: 70.2%
[2]
  viability, T/C: 74.1%
[3]
  viability, T/C: 67.5%
[4]
  viability, T/C: 73.9%
[5]
  viability, T/C: 64.3%
[6]
  viability, T/C: 23.3%
[7]
  viability, T/C: 38.8%
[8]
  viability, T/C: 36.5%
[9]
  viability, T/C: 38.1%
[10]
  viability, T/C: 36.1%
[11]
  viability, T/C: 28.2%
[12]
  viability, T/C: 13.9%
[13]
  viability, T/C: 20.5%
[14]
  viability, T/C: 22.4%
[15]
  viability, T/C: 21.3%
[16]
  viability, T/C: 17.9%
[17]
  viability, T/C: 15.3%
[18]
  viability, T/C: 6.91%
[19]
  viability, T/C: 17.1%
[20]
  viability, T/C: 18.6%
[21]
  viability, T/C: 15.7%
[22]
  viability, T/C: 15.7%
[23]
  viability, T/C: 15.1%
[24]
  viability, T/C: 6.79%
[25]
  viability, T/C: 8.73%
[26]
  viability, T/C: 9.5%
[27]
  viability, T/C: 9.69%
[28]
  viability, T/C: 8.84%
[29]
  viability, T/C: 9.71%
[30]
  viability, T/C: 2.52%
